Reference: patent publication US6984719B1, “Peptide antagonists of prostaglandin F2α receptor” (Hospital Sainte-Justine, priority 1998, dated 2006)
Ends that are not written are not given here.

Tests used:
human FP receptor = biological target: T1, human FP receptor (Homo sapiens, UniProt P43088); assay: PGF2α-induced phosphoinositide hydrolysis (inositol phosphate synthesis) in HEK293 cells expressing FP receptor; format: cell-based; conditions: 1 μM PGF2α
T1 construct: expressed in transfected cells
T1 sequence (P43088 whole entry): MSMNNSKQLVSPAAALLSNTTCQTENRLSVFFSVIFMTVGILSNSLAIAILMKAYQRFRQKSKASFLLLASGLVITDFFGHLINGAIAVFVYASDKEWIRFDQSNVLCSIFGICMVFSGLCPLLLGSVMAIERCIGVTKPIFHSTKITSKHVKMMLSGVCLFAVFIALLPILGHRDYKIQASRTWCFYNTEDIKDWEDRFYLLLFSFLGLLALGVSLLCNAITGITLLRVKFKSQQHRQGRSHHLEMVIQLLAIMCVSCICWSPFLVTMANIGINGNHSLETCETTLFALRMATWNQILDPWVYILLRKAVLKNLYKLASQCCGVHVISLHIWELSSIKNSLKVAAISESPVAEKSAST
Description: Both PCP-8 and -10 were tested in HEK293 cells expressing the human FP receptor. For this purpose, HEK 293 cells stably expressing human FP receptor were plated in 12-well plates in DMEM medium containing 10% fetal bovine serum, penicillin (10 U/ml) and streptomycin (10 μg/ml) and cultured in a humidified atmosphere containing 5% CO2 at 37° C. After the wells were 80% confluent, the cells were labeled with 2 μCi/ml of [^3H]-myo inositol overnight. Next day, the cells were washed once with PBS, and incubated in 0.5 ml of Kreb's buffer containing 10 mM LiCl and indicated concentrations of PCP peptides for 30 min. PGF2α at 1 μM was added to the cells and the incubation was carried out for an additional 30 min. The cells were solubilized with 0.1 N NaOH for 10 min and neutralized with 0.1 N formic acid. The lysates were collected and 1 ml each of methanol and chloroform were sequentially added and vortexed briefly. After centrifugation to separate the phases, inositol phosphates were separated by ion exchange chromatography as described below (Berridge, M. J. et al., 1983, Biochem. J. 212:473–482).
Briefly, the medium was discarded and the IP3 synthesis was stopped by adding 0.6 ml ice-cold methanol. The cells were scraped and collected into polypropylene tubes. Distilled water (0.5 ml) and chloroform (0.6 ml) were added and vigorously vortexed for 2 min. The phases were separated by centrifugation at 6000×g for 10 min. The aqueous phase was applied to AG-1X-8™ (Formate form) anion exchange columns (1 ml bed volume) and free inositol was eluted with 10 ml of water, followed by 60 mM ammonium formate in 0.1 M formic acid. Then, the inositol phosphates were eluted with 5 ml of 1.2 M ammonium formate in 0.1 M formic acid. After adding 3 volumes of scintillation cocktail (Optiphase-HiSafe III), the eluates were counted by scintillation spectrophotometry.
Data are expressed as fold stimulation of inositol phosphate synthesis by 1 μM PGF2α compared to the unstimulated controls. […] The half maximal inhibitory concentrations for both PCP-8 and -10 were slightly less than 100 μM.

FP receptor [1] = biological target: T2, FP receptor (Sus scrofa, UniProt C6GAG8); assay: Porcine eyecup model of ex vivo vasomotricity assay, PGF2α-induced constriction of retinal microvessels; parameters: species or system pig
T2 construct: from tissue; host or cells: eyecup / retinal microvessels of newborn pigs pretreated with ibuprofen
T2 sequence (C6GAG8 1-362): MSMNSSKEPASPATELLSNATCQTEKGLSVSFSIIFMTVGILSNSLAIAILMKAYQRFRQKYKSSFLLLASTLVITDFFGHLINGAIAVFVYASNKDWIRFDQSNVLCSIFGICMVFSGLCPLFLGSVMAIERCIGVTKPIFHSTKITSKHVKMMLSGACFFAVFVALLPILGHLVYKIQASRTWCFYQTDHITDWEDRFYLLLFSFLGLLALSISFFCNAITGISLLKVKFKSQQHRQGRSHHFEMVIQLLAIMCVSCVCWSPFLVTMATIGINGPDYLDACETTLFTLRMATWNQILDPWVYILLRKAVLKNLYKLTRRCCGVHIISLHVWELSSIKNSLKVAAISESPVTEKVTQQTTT
From the text: In order to see if the peptides could inhibit FP function using an ex vivo model, we chose porcine eyecup model, an ex vivo assay of vascular constriction in porcine retinas which we previously described and validated (Li et al., 1996 J. Pharmacol. Expt. Therapeut. 278: 370–377; Li et al., 1997 Am. J. Physiol. 273: R1283–90; Abran et al., 1997 Am. J. Physiol. 272: R995–1001). Since FP receptor densities in newborn vasculature are minimal due to down regulation by high levels of circulating prostaglandins in the perinatal period, the newborn pigs were treated with a prostaglandin synthetase blocker, ibuprofen (30 mg/Kg of bodyweight/8 h for 24 h) to increase the density of the receptors as well as their vasomotor effects. By inhibiting circulating prostaglandins, we were able to show potent inhibition of FP receptor-mediated second messenger synthesis as well as FP-mediated vascular constriction in this eyecup model.
(§1) To prepare eyecups, a circular incision was made 3–4 mm posterior to ora serrata to remove the […] segment and vitreous body with minimal handling of the retina. The remaining eyecup was fixed with pins to a wax base in a 20 ml tissue bath containing 20 ml of Kreb's buffer (pH 7.35–7.45), protease inhibitors, leupetin and aprotinin (10 μg/ml each), and equilibrated with 21% oxygen and 5% carbon dioxide at 37° C. The preparations were allowed to stabilize for 30 min. Peptides at 100 μM were added and incubation was continued for 30 min before the addition of PGF2α.
(§2) Cumulative concentration-responses of PGF2α, and TxA2 mimetic, U46619, (10^−10 to 10^−5 M) curves were constructed separately. To assess the reversibility of the antagonists, the eyecups were thoroughly washed (which would wash away the peptide) with incubation medium and concentration response curves for PGF2α were determined. The outer vessel diameter was recorded with a video camera mounted on a dissecting microscope (Zeiss M 400™) and the responses were quantified by a digital image analyzer (Sigma Scan Software, Jandel Scientific, Corte Madera, Calif.). Vascular diameter was recorded before and 10 min following the topical application of the agent.
^1Percent vasomotor response in the presence of 100 μM peptide is calculated as percent change in average vascular diameter produced by 10^−7 M PGF2α to the eyecup in the presence of the peptide compared to maximal constriction observed in the absence of the peptide.
^2Percent inhibition produced by each peptide is calculated as (100-percent vasomotor response).
Small letters indicate L-amino acids and capital letters indicate D-amino acids. I=isoleucine; L=leucine; G=glycine; H=histidine; R=Arginine; D=Aspartic acid; Y=Tyrosine; K=Lysine; A=Alanine; W=Tryptophan; E=Glutamic acid; F=Phenyl alanine; Q=Glutamine; N=Aspargine; P=Proline; S=Serine; X=Cyclohexyl alanine. Peptides were dissolved in DMSO freshly just before the experiment as 10 mM stocks and added to the eye cups 30 min before the addition of 10^−7 M PGF2α.
These peptides incorporate L- to D-amino acid changes, deletions, subtle variations in aromaticity, hydrogen bond donor status as opposed to ionic interactions and hydrophobicity.

TP receptor = assay: Porcine eyecup model of ex vivo vasomotricity assay, constriction by TxA2 mimetic U46619; parameters: species or system pig; conditions: peptide 100 μM; 1 μM U46619 / dose response
Description: as §1, §2
The peptide PCP-10 had no effect on the basal tone (diameter of the microvessel) of the vessel (FIG. 2A; left panels). […]

FP receptor [2] = assay: Porcine uterine strip ex vivo contraction assay (basal and PGF2α-induced); parameters: species or system pig; conditions: 100 μM peptide
Description: In ex vivo experiments using porcine uterine strips, the peptides were able to prevent both basal and PGF2α-induced contraction.
Uterine tissues from non-pregnant adult pigs were obtained from a local slaughter house and transported to the laboratory on ice. Uterine myometrial strips of approximately 1 cm in length were set up in organ baths containing Kreb's buffer equilibrated with 21% oxygen at 37° C. as we have described (Potvin, W. et al., 1990, Br. J. Pharmacol. 100:341–347; Varma, D. R. and Chemtob, S., 1993, J. Pharmacol. Expt. Ther. 265:1096–1104). Contractions were recorded by force transducers on Grass-polygraph. Strips were incubated with or without 100 μM peptides for 30 min before adding PGF2α in step-wise increments (10^−9 to 10^−6 M). Data were expressed as percentage increase over the basal level of average tension (g).
A graph of spontaneous uterine contractions (known to be dependent upon prostanoids, mainly PGF2α) in the absence and the presence of 100 μM PCP-8 are shown in FIG. 3A.

IC50 (human FP receptor; HEK293 cells stably expressing human FP receptor, read-out: half maximal inhibitory concentration, inositol phosphate synthesis): < 100 µM
inhibition of inositol phosphate synthesis initiated by PGF2α (human FP receptor; peptide at 100 μM): potently inhibited
Emax (FP receptor [1]; 100 μM peptide, 10^−7 M PGF2α, calculated as 100-percent vasomotor response, read-out: % inhibition of maximal response): 50%
effect on vasomotor responses in PGF2α dose response (FP receptor [1]; peptide 100 μM, even at concentrations exceeding 1 μM of PGF2α): abrogated the vasomotor responses
effect on vasoconstriction by TxA2 mimetic U46619 (TP receptor): no effect
reduction in uterine contraction (FP receptor [2]; all concentrations of PGF2α tested (10^−9 to 10^−6 M)): More than 60%
effect on spontaneous (basal) uterine contraction (FP receptor [2]; porcine uterine strips): reduced the force of basal contraction
Substance: ILGHRDYK-OH [PCP-8, ilghrdyk]
